In article PMC6348381, “Discovery of an MLLT1/3 YEATS Domain Chemical Probe” (Angewandte Chemie (International Ed. in English), 2018):

What was measured:
FALZ = FALZ (Homo sapiens, UniProt Q12830); test: AlphaScreen selectivity screen, FALZ; type: binding
Source text: (§1) IC50 (µM) IC50 (µM) IC50 (µM) IC50 (µM) (µM) (µM) (µM)
(§2) Supplementary Table 1. […]

BRD4(1) = BRD4(1) (Homo sapiens, UniProt O60885); test: AlphaScreen selectivity screen, BRD4 (1); type: binding
Source text: as §1, §2

MLLT3 YD = molecular target: T1, MLLT3 YD (Homo sapiens, UniProt P42568); test: Isothermal titration calorimetry (ITC), MLLT3 YD; type: binding
T1 construct: made in house; host or cells: E. coli Rosetta
T1 sequence (P42568 1-138 limits assumed): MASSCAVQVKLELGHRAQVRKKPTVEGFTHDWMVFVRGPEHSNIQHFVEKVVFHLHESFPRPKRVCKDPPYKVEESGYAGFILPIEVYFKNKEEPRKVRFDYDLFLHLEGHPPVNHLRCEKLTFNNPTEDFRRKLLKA
Method: Supplementary Table 1. AlphaScreen selectivity screen of compound 92 over other acyllysine […]
II.III Isothermal Titration Calorimetry (ITC)
Experiments were carried out on a Nano -ITC Standard Volume Instrument (TA Instruments).
All experiments were carried out at 25 °C in 20 mM HEPES pH 7.5, 150 mM NaCl, 0.5 mM TCEP and 5% glycerol. Protein soluti ons were buffer exchanged by gel filtration. The titrations were conducted using an initial injection of 2 μL followed by 32 injections of 8 μL.
Background dilution heat was subtracted from each experiment. Thermodynamic parameters […]
changes in free energy, enthalpy and entropy respectively. Independent single site binding models were employed in data analysis.
(also on this page, place not known: ac yllysine Nano-ITC -T 1/ KB. ΔH Molar&ratio&[injectant/cell] Time&[s] Corrected&Heat&Rate&[ucal/s] Experiment&1 K Experiment&2 K K)
(1 picture or pasted object on this page, not shown here)

MV4;11 AML cells = test: qPCR gene expression in MV4;11 cells; type: cell-based, human; conditions: 1 μM, 72 h
Method: II.XII Analysis of gene expression by quantitative polymerase chain reaction (qPCR) […]
MV4;11 cells were cultured at 37 °C in a humidified 5% CO2 atmosphere in RPMI medium containing 10% FBS and 1% L-glutamine. Cells were seeded at a density of 2 x 10^6 cells/well in 6 well plates pre-coated in polyhema, to enable suspension culture. Cells were […]
and washing with PBS, RNA was extracted from cells using RNeasy Mini Kit (Qiagen), following the manufacturer’s protocol. Total RNA was quantified by Nanodrop and 500 ng of RNA was converted to cDNA using GoScript Reverse Transcription System (Promega). The final cDNA products were quantified by QPCR using FAM dye-labelled Taqman primers and probe sets (see table below). Data was analysed using the comparative cycle threshold (CT) method where CT values were normalised by subtracting that from an endogenous housekeeping gene (VIC dye-labelled ACTB). The gene expression levels from compound-treated cells are presented as relative to those of DMSO treated control cells. Statistical analyses were carried out using two-way ANOVA (GraphPad Prism 7).
ACTB (Beta Actin) Endogenous Control 4326315E
Supplementary Table 4. Taqman Gene Expression Assays (Life Technologies). Taqman MGB probes have 5’ FAM reporter dye (or VIC) and 3’ non-fluorescent quencher. […]

[1] = molecular target: T2, endogenous MLLT1 in HEK293 cells (Homo sapiens, UniProt Q03111); test: Cellular thermal shift assay (CETSA), HEK293 cells; type: cell-based; conditions: Western blot
T2 construct: endogenous in cells; host or cells: HEK293
T2 sequence (Q03111 whole entry): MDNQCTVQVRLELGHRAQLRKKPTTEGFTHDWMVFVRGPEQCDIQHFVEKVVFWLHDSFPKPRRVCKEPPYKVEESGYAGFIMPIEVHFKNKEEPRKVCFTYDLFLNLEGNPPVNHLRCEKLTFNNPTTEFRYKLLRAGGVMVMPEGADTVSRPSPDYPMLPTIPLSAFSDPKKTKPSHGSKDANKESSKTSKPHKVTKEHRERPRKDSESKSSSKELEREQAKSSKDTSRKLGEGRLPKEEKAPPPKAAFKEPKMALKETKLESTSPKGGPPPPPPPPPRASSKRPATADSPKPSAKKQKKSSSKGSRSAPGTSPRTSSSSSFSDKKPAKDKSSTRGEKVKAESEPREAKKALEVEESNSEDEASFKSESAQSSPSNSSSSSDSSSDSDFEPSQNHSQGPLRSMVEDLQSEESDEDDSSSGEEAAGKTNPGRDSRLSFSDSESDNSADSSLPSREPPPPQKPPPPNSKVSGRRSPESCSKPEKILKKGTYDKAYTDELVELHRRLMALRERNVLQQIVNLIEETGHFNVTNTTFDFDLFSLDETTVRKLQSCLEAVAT
Method: Supplementary Table 2. Thermal stabilisation of compound 1, 92 and Bromosporine with recombinant human bromodomain proteins. *50 µM compound concentration. †10 µM compound […]
II.VIII Cellular Thermal Shift Assay[6]
HEK293 and MV4;11 cells were cultured at 37 °C in a humidified 5% CO2 atmosphere in DMEM Medium containing 10% FBS, respectively. Cells were grown until approximately […]
DMSO final concentrati on) for 30 minutes. Cells were then collected, washed with PBS, transferred in PCR tubes, and pelleted by centrifugation (300 g, 3 min, RT.) The PBS was removed, and the cell pellets heated at the indicated temperature for 3 minutes in a PCR machine (UNO96 , VMR) and then placed on ice. Lysis buffer (50 mM Tris pH 7.5, 0.8% v/v NP-40, 5% v/v glycerol, 1.5 mM MgCl2, 100 mM NaCl, 25 mM NaF, 1mM Na3VO4, 1mM PMSF, 1mM DTT, 10 μg/mL TLCK, 1 μg/mL Leupeptin, 1 μg/mL Aprotinin, 1 μg/mL soy bean trypsin, ≥250 units/ mL Benzonase) was added and the cells lysed by 3 freeze -thaw cycles in liquid nitrogen. Aggregated proteins were removed by centrifugation (17000 g, 20 min, 4 °C) and the protein concentration of the retained soluble fraction determined. 4× sample loading buffer (Bio-Rad) containing 20% v/v DTT was added and samples were heated for 6 min at 90 °C prior to separation by SDS -PAGE. […]

MLLT1 = molecular target: T3, MLLT1 (Homo sapiens, UniProt Q03111); test: NanoBRET assay, full length MLLT1:Histone 3.3 in HEK293 cells; type: cell-based; conditions: relative to the DMSO control
T3 construct: We also developed a full length MLLT1:Histone 3.3 (H3.3) NanoBRET assay; host or cells: HEK293
T3 sequence (Q03111 whole entry): as above
Method: transfected with Histone H3.3-HaloTag (NM_002107) and a NanoLuciferase fusion of MLLT1 or MLLT3 (WT sequences from Promega HaloTag® human ORF in pFN21A) at a 1:500 and 1:10 (NanoLuc® to HaloTag®) ratio respectively with FuGENE HD transfection regent. Sixteen hours post-transfection, cells were collected and exchanged into media containing phenol red-free DMEM and 4% FBS in the absence (control sample) or the
Compounds were then added directly to media (in the presence of SAHA 2.5 M) at final concentrations 0.01-30 μM or an equivalent amount of DMSO as a vehicle control, and the plates were incubated for 24 h at 37 °C in the presence
NanoBRET Nano-Glo substrate (Promega) was added to both control and experimental samples at a final concentration of 10 µM. Readings were performed within 5 minutes using
BRET ratios are expressed as milliBRET units (mBU), where 1 mBU corresponds to the corrected BRET ratio multiplied by 1000.
Mean±SD of BRET ratio (mBU), n=4 technical replicates.

YEATS4 = molecular target: T4, YEATS4 (Homo sapiens, UniProt O95619); test: AlphaScreen selectivity screen, YEATS4; type: binding
T4 construct: made in house; host or cells: E. coli Rosetta
T4 sequence (O95619 15-158 limits assumed): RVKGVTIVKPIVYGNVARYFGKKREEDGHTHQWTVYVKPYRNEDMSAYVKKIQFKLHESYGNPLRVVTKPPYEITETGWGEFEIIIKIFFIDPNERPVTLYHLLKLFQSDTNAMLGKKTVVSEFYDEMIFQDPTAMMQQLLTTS
Source text: as §1, §2

MLLT1 YD = molecular target: T5, MLLT1 YD (Homo sapiens, UniProt Q03111); test: Isothermal titration calorimetry (ITC), MLLT1 YD; type: binding
T5 construct: made in house; host or cells: E. coli Rosetta
T5 sequence (Q03111 1-138 limits assumed): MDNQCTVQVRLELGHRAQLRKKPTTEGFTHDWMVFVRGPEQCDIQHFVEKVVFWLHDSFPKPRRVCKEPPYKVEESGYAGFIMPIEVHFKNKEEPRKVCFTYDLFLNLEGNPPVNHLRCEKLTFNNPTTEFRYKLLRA

SMILES | inhibition of FALZ (FALZ; 10 μM using AS) | IC50 (FALZ; AlphaScreen selectivity screen) [nM] | inhibition of BRD4 (I) (BRD4(1); 10 μM using AS) | IC50 (BRD4(1); AlphaScreen selectivity screen) [nM] | Kd (MLLT3 YD) [nM] | gene expression of MYC, MPO, DDN, CTSG, CD86 (qPCR) (MV4;11 AML cells) | CD86 gene expression (qPCR) (MV4;11 AML cells; compared to DMSO) | DDN gene expression (qPCR) (MV4;11 AML cells; compared to DMSO) | MYC gene expression (qPCR) (MV4;11 AML cells; compared to DMSO) | heat shock stabilisation of endogenous MLLT1 (CETSA) [1] | BRET activity (mBU), MLLT1:H3.3 NanoBRET (MLLT1) | IC50 (YEATS4) [nM] | Kd (MLLT1 YD) [nM]
C[C@H]1CCCN1Cc1nc2cc(NC(=O)c3ccc4c(cnn4C)c3)ccc2[nH]1 [Compound 92] | no inhibition | > 10000 | no inhibition | > 10000 | 77 | changed gene expression of 3/5 genes | increase | reduction | reduction | stabilisation | no reduction in mBU | > 10000 | 
COC(=O)c1ccc(C(=O)Nc2ccc3[nH]c(CN4CCCCC4)nc3c2)cc1 [Compound 1] |  |  |  |  |  |  |  |  |  |  |  |  | 1000
